Results taken from patent US12116363B2, “Combinations for immune-modulation in cancer treatment” (SENHWA BIOSCIENCES, INC., priority 2018, dated 2024).

How the values were obtained:
[1] = system: Colo-205 colorectal cancer model; assay: Colo-205 colorectal cancer model, gemcitabine and CX-4945; assay type: in vivo; conditions: Colo-205 model (FIG. 2)
From the text: The Colo-205 colorectal cancer model is resistant to each individual agent alone (FIG. 2).

[2] = system: A2780 ovarian cancer xenografts; assay: A2780 ovarian tumor xenograft model, gemcitabine and CX-4945; assay type: in vivo; conditions: gemcitabine 60 mg/kg i.v., CX-4945 100 mg/kg oral
4T1 breast cancer cells = assay: Tumor growth inhibition in immune-competent syngeneic mouse model 4T1; assay type: in vivo, Balb/C mice; conditions: 14 day; CX-4945 75 mg/kg oral BID Day 0-13; cisplatin 6 mg/kg i.p. QW Day 0 and 7
Method: Efficacy studies of tumor growth inhibition and T cells activities was conducted in an immune-competent syngeneic mouse models, 4T1, that is known to be resistant to the treatment of immune checkpoint inhibitors such as anti-PD1, anti-PD-L1, and anti-CTLA4. The resistance to these antagonists that modulates T cell […] signaling indicate a high immune suppressive tumor microenvironment.
This series of studies were conducted in Balb/C mice that are six to eight weeks old. Breast cancer cells, 4T1, were injected subcutaneously with 3×10^5 cells in 0.1 ml PBS to the right flank of the mice. Mice were randomized for treatment when the mean tumor size reached approximately 80-120 mm^3. Treatment were administered with CX-4945 and/or cisplatin at the doses and schedules described in Table 1. […] Tumors were measured two dimensionally (width×length) with an electronic caliper and tumor volume was calculated with the formula V=(L×W×W)/2, where V is tumor volume, L is tumor length (the longest tumor dimension) and W is tumor width (the longest tumor dimension perpendicular to L). The mice were monitored twice weekly and euthanized when tumor sizes reached approximately 800-1000 mm^3 for flow cytometry analysis.
Anti-tumor activities were measured as % Tumor Growth Inhibition (% TGI) at the time of euthanized. TGI was calculated as % TGI=100×(1−T/C). […]

[3] = system: tumor-infiltrating T cells and MDSC in 4T1 tumor microenvironment; assay: Flow cytometry of immune cells in 4T1 tumors; assay type: in vivo, Balb/C mice; conditions: immune competent mice
Method: The composition of immune cells was analyzed with multi-color flow cytometry (FACS) at days when tumor reaches 800-1000 mm^3. Tumors were treated with dissociation media (Miltenyi, CAT #130-096-730) and resuspend in FACS buffer. T cell infiltration was measured by the investigating the number of T cells in the tumor samples. CD4 T, CD8 T, activated CD4 T, and activated CD8 T cells were identified by cell surface marker as CD45^+CD3^+CD4^+, CD45^+CD3^+CD8^+, CD45^+CD3^+CD4^+CD69^+, and CD45^+CD3^+CD8^+CD69^+, respectively. The absolute count of cells was measured by normalized number of cells with counting beads (eBiosciences CAT #01-1234-42) and the weight of each tumor sample. Absolute count of tumor-infiltrating T cells was calculated by the formula as Absolute count (cells/mg)=[(cell count×eBead Volume)/(eBead count×tumor weight)]×eBead concentration.

SMILES | tumor growth [1] | % TGI [2] | Median TTE days [2] | delay in time to endpoint (TTE analysis) [2] | % TGI (4T1 breast cancer cells) | number of MDSC systemically or locally in the tumor microenvironment [3]
Nc1ccn([C@@H]2O[C@H](CO)[C@@H](O)C2(F)F)c(=O)n1 [Gemcitabine, gemcitabine, reference compound] | resistant | 68% | 28 days | significant delay in time to endpoint | – | –
N.N.[Cl][Pt][Cl] [Cisplatin, cisplatin, reference compound] | – | – | – | – | 45% | –
O=C(O)c1ccc2c(c1)nc(Nc1cccc(Cl)c1)c1ccncc12 [CX-4945, silmitasertib] | resistant | 20% | 18 days | significant delay in time to endpoint | 18% | does not decrease
